{"source": "patent US20040029244A1", "about": "“Phospholipase d effectors for therapy and screening” (priority 2003, published 2004)", "type_in_all_cases": "cell-based, human", "key": {"[1]": {"system": "MMP-9 expression in HT 1080 cells", "assay": "Cell lysis and immunoblotting with rabbit anti MMP-9", "conditions": "7.5 h", "procedure": "FIG. 6. Phophatidic acid mediates protein kinase C induction of MMP-9 expression. A, Overnight serum-deprived cells were incubated in freshly added DMEM, 0.1% BSA containing either 100 nM PMA or 80 ? g/ml DDPA. B. Overnight serum-deprived cells were incubated in freshly added DMEM, 0.1% BSA containing 0.5% of either 1-propanol or 2-propanol for control. Following 7.5 h incubation cells were lysed with RIPA buffer and 15 ? g whole cell lysate were subjected to SDS-PAGE and immunoblotting with rabbit anti MMP-9. Immunoreactive bands were visualized using the ECL reaction. The data shown are representative of three independent experiments.\nCell lysis and immunoblotting Overnight serum-deprived cells in 60 mm plates were washed with PBS and then lysed with 750 μl RIPA^− buffer (1% NP-40, 0.1% SDS, 100 mM NaF, 10 mM Na pyrophosphate, 2.5 mM Na3VO4 in PBS). RIPA^− soluble fraction was separated from the non-solube fraction by 15 min centrifugation in a bench top microcentrifuge at 14,000 rpm at 4° C. Protein samples (15 μg) were analyzed after SDS-polyacrylamide gel electrophoresis (SDS-PAGE) by immunoblotting with rabbit anti MMP-9 or anti actin diluted according to manufacturer instructions in PBS, 0.5% Tween 20 and 5% dry milk powder and with horseradish peroxidase-labeled secondary antibody. Immunoreactive bands were visualized by the enhanced chemiluminescence (ECL) reaction."}, "[2]": {"system": "MMP-9 secretion from HT 1080 cells", "assay": "MMP-9 secretion and activity assay (zymogram gels of cell medium)", "conditions": "for MMP-9 secretion in response to various PMA concentrations at 133 mM alcohol: 133 mM alcohol 45 min before PMA, FIG. 4B; for effect on PMA-induced MMP-9 secretion at 200 mM alcohol: 200 mM alcohol 45 min before 100 nM PMA", "procedure": "FIG. 4. […] Overnight serum-deprived cells were incubated in freshly added DMEM, 0.1% BSA. A, the indicated concentrations of either 2-propanol or 1-propanol were then added. After 45 min, 100 nM PMA-was added and cells were incubated for 7.5 h after which media samples (5 ? l) were analyzed for MMP-9 secretion. B, the cells were incubated with 133 mM 2-propanol or 1-propanol for 45 min. PMAa was then introduced to give the indicated concentrations. The cells were incubated for 7.5 h after which 5 ? l media samples were analyzed for MMP-9 secretion. The data shown are representative of three independent experiments. […]\nMMP-9 secretion and activity assay Before assay, the cell medium was replaced with fresh DMEM, 0.1% BSA containing, unless otherwise described, 100 nM PMA. In experiments involving inhibition with BFA, it was added 30 min before induction with PMA. Medium samples were collected after 7.5 h and loaded with non-reducing sample buffer (2% SDS, 10% glycerol in 62.5 mM Tris pH 6.8) on zymogram gels. Before developing, gels were rinsed for 30 min in renaturing buffer and then 30 min in developing buffer at room temperature. Gels were incubated in fresh developing buffer for 18 h at 37° C. MMP-9 activity was indicated by the clear 92 kDa band that appeared after staining with Coomassie brilliant blue and removing excess dye by an 18 h rinse in water. Gels were dried and scanned and then the image was inverted (clear to black and black to clear)."}, "PLD in HT 1080 cells": {"system": "PLD in HT 1080 cells", "assay": "In vivo PLD assay ([3H]phosphatidylbutanol formation in labeled cells)", "procedure": "FIG. 2. Activation of PLD in PMA-treated HT 1080 cells. The cells, at their log phase of growth, were serum deprived and labeled with […] [^3H]myristic acid. Following washing and preincubation with DMEM, 0.1% BSA, 0.3% 1-butanol for 20 min, and 100 nM PMA were added, and cells were incubated for the indicated times at 37° C. Lipids were extracted and analyzed, and the production of labelled phosphatidylbutanol ([^3H]PtdBut) was measured as described under “Materials and Methods”. The values obtained for [^3H]PtdBut were normalized by dividing the measured counts/min by counts/min in the total lipid fraction. Data are expressed as the mean±S.E. of the fold activation in three independent experiments performed in triplicates.\nIn vivo PLD assay Serum-deprived cells were labeled for 18 h with 1 μCi/ml [^3H]myristic acid and were washed with DMEM, 0.1% BSA. Following 20 min preincubation in DMEM, 0.1% BSA, 0.3% 1-butanol, the cells were stimulated with, unless otherwise described, 100 nM PMA for 20 min. Cells were washed with phosphate saline buffer (PBS) (2.68 mM KC1, 1.47 mM KH2PO4, 8.05 mM Na2PO4, 137 mM NaC1), 0.1% BSA, scraped with 1 ml ice cold CH3OH and transferred into glass tubes. CHC13 and 0.1 N HC1 were added to a final ratio of 1:1:1. The lipid-containing lower phase was collected, dried and dissolved in 30 μl CH3OH, CHC13 (1:1). The samples were loaded on a TLC plate which was developed in the lower phase of H2O, ethylacetate, acetic acid and iso-octane (100:110:20:50 respectively). Tritiated phosphatidylbutanol (PdtBut) was measured after scraping the band corresponding to the PtdBut standard (Avanti Polar Lipids)."}}, "note": "Starred links: 1 amine or outer side, 2 acyl side, 3 side chain; linkers in the order of their positions; H or OH if unused. Positions of bridges follow the written chain, without caps; N, C: chain ends. Non-standard residues stand in square brackets, D forms with d. Residues, ends and D or L forms follow the SMILES beside them. Chains are numbered I, II in the order given. Actinocin(9to1) = Cc1c2oc3c(C)ccc(C(=O)[*:1])c3nc-2c(C(=O)[*:2])c(N)c1=O; NMeV = CN[C@H](C(=O)O)C(C)C; Sar = CNCC(=O)O"}
{"compound": "CCCO", "note": "[1-propanol]", "values": [{"measurement": "MMP-9 expression in PMA-treated cells (immunoblot)", "setting": "[1]; 0.5% alcohol pretreatment, PMA, whole cell lysate, FIG. 6", "result": "suppressed"}, {"measurement": "effect on PMA-induced MMP-9 secretion at 100 mM alcohol", "setting": "[2]; 100 mM alcohol 45 min before 100 nM PMA, 7.5 h, FIG. 4A", "result": "inhibited"}, {"measurement": "MMP-9 secretion in response to various PMA concentrations at 133 mM alcohol", "setting": "[2]; 7.5 h", "result": "almost totally suppressed"}, {"measurement": "effect on PMA-induced MMP-9 secretion at 200 mM alcohol", "setting": "[2]; 7.5 h, FIG. 4A", "result": "almost absolute suppression"}]}
{"compound": "CC(C)O", "note": "[2-propanol]", "values": [{"measurement": "MMP-9 secretion in response to various PMA concentrations at 133 mM alcohol", "setting": "[2]; 7.5 h", "result": "continues to be dose-dependent"}, {"measurement": "effect on PMA-induced MMP-9 secretion at 200 mM alcohol", "setting": "[2]; 7.5 h, FIG. 4A", "result": "inhibitory"}]}
{"compound": "Cc1c2oc3c(C)ccc(C(=O)N[C@@H]4C(=O)N[C@H](C(C)C)C(=O)N5CCC[C@H]5C(=O)N(C)CC(=O)N(C)[C@@H](C(C)C)C(=O)O[C@@H]4C)c3nc-2c(C(=O)N[C@@H]2C(=O)N[C@H](C(C)C)C(=O)N3CCC[C@H]3C(=O)N(C)CC(=O)N(C)[C@@H](C(C)C)C(=O)O[C@@H]2C)c(N)c1=O", "note": "[ActD, actinomycin D] (I: T[dV]P[Sar][NMeV] / II: T[dV]P[Sar][NMeV]; ester I:1-I:C, II:1-II:C; linker I:N-II:N via Actinocin(9to1))", "values": [{"measurement": "effect on MMP-9 secretion induced with phosphatidic acid", "setting": "[2]; 10 μg/ml ActD 45 min, then 80 μg/ml DDPA, 7.5 h, FIG. 5", "result": "fully decreased"}]}
{"compound": "CCCCCCCCCCCCCC(=O)O[C@@H]1[C@@H](C)[C@@]2(O)[C@@H](C=C(CO)C[C@]3(O)C(=O)C(C)=C[C@@H]23)[C@@H]2C(C)(C)[C@]12OC(C)=O", "note": "[PMA, phorbol 12-myristate 13-acetate]", "values": [{"measurement": "MMP-9 activity accumulating in the medium of treated cells", "setting": "[2]; HT 1080 cells, 100 nM PMA, various times up to 7.5 h", "result": "time-dependent manner"}, {"measurement": "lowest concentrations at which MMP-9 secretion is detected", "setting": "[2]; HT 1080 cells, 7.5 h, FIG. 1B", "result": "0.5 to 1", "unit": "nM"}, {"measurement": "time at which PtdBut formation (PLD activity) reaches a maximum", "setting": "PLD in HT 1080 cells; 100 nM PMA, 0.3% 1-butanol, FIG. 2", "result": 90, "unit": "min"}, {"measurement": "concentration at which the PLD response is detectable", "setting": "PLD in HT 1080 cells; HT 1080 cells, data not shown", "result": 1, "unit": "nM"}, {"measurement": "concentration at which the PLD response is maximal", "setting": "PLD in HT 1080 cells; HT 1080 cells, data not shown", "result": 100, "unit": "nM"}]}
{"compound": "Cn1cc(C2=C(c3cn(CCCSC(=N)N)c4ccccc34)C(=O)NC2=O)c2ccccc21", "note": "[Ro 31-8220]", "values": [{"measurement": "effect on PMA-induced MMP-9 secretion", "setting": "[2]; 5 μM inhibitor preincubated 1 h, then 100 nM PMA, 7.5 h, FIG. 1C", "result": "inhibition of secretion"}]}
{"compound": "diodecanoylphosphatidic acid [DDPA]", "values": [{"measurement": "induction of MMP-9 secretion", "setting": "[2]; HT 1080 cells, various concentrations, 7.5 h, FIG. 3", "result": "induces MMP-9 secretion in a dose-dependent manner"}]}
{"compound": "phosphatidic acid [PA]", "values": [{"measurement": "induction of MMP-9 expression (immunoblot)", "setting": "[1]; HT 1080 cells, 80 μg/ml DDPA, FIG. 6A", "result": "induces de novo MMP-9 expression"}]}
